The results in this text go back to ChEMBL document CHEMBL4304775, “Identification and characterization of a novel chemotype for human TLR8 inhibitors” (Eur J Med Chem, 2019).

Molecules are shown by their SMILES. Active and inactive are the calls of the source. The rule behind the calls is not given here.

Data set [1] has as its target T1, Toll-like receptor 8 (Homo sapiens) (UniProt Q9NR97).
T1 sequence (whole entry): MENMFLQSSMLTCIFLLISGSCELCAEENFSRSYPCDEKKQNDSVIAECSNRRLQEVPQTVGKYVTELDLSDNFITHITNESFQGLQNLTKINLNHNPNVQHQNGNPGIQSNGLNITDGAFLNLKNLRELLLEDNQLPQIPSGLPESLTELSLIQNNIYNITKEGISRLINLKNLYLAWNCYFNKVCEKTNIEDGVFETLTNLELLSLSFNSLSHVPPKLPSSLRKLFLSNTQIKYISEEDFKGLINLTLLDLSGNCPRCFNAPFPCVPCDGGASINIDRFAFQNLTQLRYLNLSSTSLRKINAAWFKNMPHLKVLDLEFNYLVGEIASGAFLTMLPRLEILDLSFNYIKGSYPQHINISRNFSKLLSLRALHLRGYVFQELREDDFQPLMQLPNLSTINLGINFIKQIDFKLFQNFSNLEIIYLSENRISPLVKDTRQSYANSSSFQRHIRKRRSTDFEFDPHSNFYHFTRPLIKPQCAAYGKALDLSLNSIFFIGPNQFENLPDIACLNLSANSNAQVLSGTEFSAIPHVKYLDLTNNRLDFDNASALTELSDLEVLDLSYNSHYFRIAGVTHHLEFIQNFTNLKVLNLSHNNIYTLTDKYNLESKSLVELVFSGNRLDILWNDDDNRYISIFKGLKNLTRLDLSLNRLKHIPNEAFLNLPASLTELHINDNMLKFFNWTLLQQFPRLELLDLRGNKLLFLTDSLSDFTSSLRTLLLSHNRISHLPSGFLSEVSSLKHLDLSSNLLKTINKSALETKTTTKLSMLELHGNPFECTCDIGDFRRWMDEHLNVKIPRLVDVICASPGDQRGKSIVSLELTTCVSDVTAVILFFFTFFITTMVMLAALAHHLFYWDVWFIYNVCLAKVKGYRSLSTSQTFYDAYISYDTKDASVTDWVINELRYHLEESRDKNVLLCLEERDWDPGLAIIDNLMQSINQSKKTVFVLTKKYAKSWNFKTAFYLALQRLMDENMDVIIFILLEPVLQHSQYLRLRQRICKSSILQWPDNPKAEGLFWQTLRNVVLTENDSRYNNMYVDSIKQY
The experiment in a line: Antagonist activity at human TLR8 expressed in HEK-Blue cells assessed as reduction in CL075-induced NF-kappaB activation at 10 uM incubated for 1 hr followed by CL075-stimulation and measured after 24 hrs by quanti-blue SEAP assay. It is filed as cell-based.

Data set [2] concerns the target Toll-like receptor 2 (Homo sapiens) (UniProt O60603). Briefly: Antagonist activity at TLR2 in human THP1 cells assessed as inhibition of Pam2CSK4/Pam3CSK4-induced IL-8 secretion preincubated for 1 hr followed by Pam2CSK4/Pam3CSK4 stimulation and measured after 24 hrs by ELISA. It counts as cell-based. A general note: In an ELISA, binding on a coated surface is turned into a signal by an enzyme label.

Data set [3] relates to THP-1. The experiment in a line: Antiinflammatory activity in human THP1 cells assessed as reduction in CL075-induced IL-8 secretion at 10 to 25 uM preincubated for 1 hr followed by CL075-stimulation and measured after 24 hrs by ELISA relative to control. It is filed as functional.
A short description of data set [4]: Cytotoxicity against human HEK-Blue cells transfected with hTLR8 at 25 to 50 uM after 24 hrs by MTT assay. It counts as cell-based.
The target of data set [5] is T2, Toll-like receptor 9 (Homo sapiens) (UniProt Q9NR96).
T2 sequence (whole entry): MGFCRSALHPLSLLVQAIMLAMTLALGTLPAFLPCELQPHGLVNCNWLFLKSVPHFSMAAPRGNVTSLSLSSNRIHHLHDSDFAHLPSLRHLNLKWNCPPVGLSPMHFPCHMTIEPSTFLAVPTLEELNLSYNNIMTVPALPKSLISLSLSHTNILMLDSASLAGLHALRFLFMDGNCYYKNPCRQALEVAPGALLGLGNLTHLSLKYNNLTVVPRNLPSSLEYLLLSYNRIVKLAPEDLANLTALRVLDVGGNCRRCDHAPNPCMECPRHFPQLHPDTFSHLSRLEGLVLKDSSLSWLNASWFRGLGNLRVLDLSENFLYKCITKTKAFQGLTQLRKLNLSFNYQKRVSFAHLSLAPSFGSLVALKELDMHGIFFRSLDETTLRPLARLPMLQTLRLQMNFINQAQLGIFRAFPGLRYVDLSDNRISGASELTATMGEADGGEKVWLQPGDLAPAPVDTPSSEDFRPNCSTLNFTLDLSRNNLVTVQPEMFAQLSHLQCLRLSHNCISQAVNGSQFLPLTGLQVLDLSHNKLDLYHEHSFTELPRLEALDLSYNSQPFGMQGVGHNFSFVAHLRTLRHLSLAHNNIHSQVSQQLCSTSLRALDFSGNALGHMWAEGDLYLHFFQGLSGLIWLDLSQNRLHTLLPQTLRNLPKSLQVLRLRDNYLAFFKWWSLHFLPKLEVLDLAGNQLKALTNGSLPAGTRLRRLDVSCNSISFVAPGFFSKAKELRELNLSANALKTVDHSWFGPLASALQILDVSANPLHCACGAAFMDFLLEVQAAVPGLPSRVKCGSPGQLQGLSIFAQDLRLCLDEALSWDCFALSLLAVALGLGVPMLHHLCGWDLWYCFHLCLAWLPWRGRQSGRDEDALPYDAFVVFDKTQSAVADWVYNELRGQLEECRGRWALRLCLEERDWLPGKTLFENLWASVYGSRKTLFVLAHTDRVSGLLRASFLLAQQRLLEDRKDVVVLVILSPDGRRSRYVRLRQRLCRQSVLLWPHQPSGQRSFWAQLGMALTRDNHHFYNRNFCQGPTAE
The experiment in a line: […] at TLR9 in human THP1 cells assessed as inhibition of ODN2006-induced IL-8 secretion preincubated for 1 hr followed by ODN2006-stimulation and measured after 24 hrs by ELISA. It counts as cell-based.

Another data set has as its target T3, Toll-like receptor 8 (Homo sapiens, UniProt Q9NR97).
T3 sequence (Q9NR97 whole entry): T1 sequence (whole entry)
Briefly: (§1) Antagonist activity at human TLR8 expressed in HEK-Blue cells assessed as inhibition of CL075-induced NF-kappaB activation incubated for 1 hr followed by CL075-stimulation and measured after 24 hrs by quanti-blue SEAP assay. It counts as cell-based.

The subject of data set [6] is THP-1. Briefly: Cytotoxicity against human THP1 cells at 25 to 100 uM after 24 hrs by MTT assay. It counts as cell-based. Conditions: thp-1, 24 h. (In general: Tetrazolium dyes change colour on reduction, which living cells bring about.)
The target of data set [7] is T1, Toll-like receptor 8 (Homo sapiens). Described as §1. It counts as cell-based.
Data set [8] relates to THP-1. Briefly: Cytotoxicity against human THP1 cells assessed as reduction in cell viability at 50 uM after 24 hrs by MTT assay. Conditions: thp-1, 24 h. It counts as cell-based.
A short description of data set [9]: Cytotoxicity against human HEK-Blue cells transfected with hTLR8 assessed as reduction in cell viability at 50 uM after 24 hrs by MTT assay. It counts as cell-based.

Sequence of Toll-like receptor 2 (Homo sapiens) (O60603 whole entry): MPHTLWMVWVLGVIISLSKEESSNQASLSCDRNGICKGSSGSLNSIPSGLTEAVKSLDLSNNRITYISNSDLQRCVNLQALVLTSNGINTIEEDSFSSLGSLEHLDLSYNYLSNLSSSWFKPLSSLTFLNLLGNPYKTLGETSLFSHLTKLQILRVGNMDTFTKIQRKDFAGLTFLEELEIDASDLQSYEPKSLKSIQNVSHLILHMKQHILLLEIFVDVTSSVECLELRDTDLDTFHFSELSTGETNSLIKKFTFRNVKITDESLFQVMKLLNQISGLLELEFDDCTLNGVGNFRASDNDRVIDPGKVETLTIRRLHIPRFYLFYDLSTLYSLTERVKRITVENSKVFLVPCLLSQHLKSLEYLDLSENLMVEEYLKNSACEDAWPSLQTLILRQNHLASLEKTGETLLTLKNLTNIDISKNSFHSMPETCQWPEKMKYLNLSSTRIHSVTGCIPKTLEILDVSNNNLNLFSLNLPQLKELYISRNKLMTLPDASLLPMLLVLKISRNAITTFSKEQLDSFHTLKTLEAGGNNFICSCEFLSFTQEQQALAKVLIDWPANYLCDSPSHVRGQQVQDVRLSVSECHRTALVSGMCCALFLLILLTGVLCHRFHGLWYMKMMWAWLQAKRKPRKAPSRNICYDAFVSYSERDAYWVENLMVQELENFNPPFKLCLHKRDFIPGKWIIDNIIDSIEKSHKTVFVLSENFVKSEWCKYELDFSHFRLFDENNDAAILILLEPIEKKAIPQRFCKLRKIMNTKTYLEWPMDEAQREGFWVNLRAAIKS

What is called IC50 is the midpoint of a concentration-inhibition curve. `FC(F)(F)c1cc(-c2ccccc2)nc(NCc2cccs2)n1`: the inhibition result in data set [1] was “Active”. In addition, the inhibition entry in data set [2] and in data set [5] was “inactive” in each case. In addition, the “inhibition (INH)” value with THP-1 [3] was more than 70%. The Activity result (in data set [4]; in the data set on THP-1 [6]) was “Non-Toxic” throughout. Further, the IC50 at Toll-like receptor 8 is 20 µM.
In the case of `FC(F)(F)c1cc(-c2ccco2)nc(NCc2cccs2)n1`, in data set [1], the inhibition result was “Active”. Besides, the inhibition entry in data set [2] and in data set [5] was “inactive” each time. Moreover, the “inhibition (INH)” value in the data set with THP-1 [3] is reported as more than 70%. The IC50 on Toll-like receptor 8 came out at 9.2 µM. The inhibition result in [7] is “Dose-dependent effect”. Moreover, the Activity result (in the data set with THP-1 [8]; in data set [9]) was “Toxic” in each case.
`CCCCNc1nc(-c2cccs2)cc(C(F)(F)F)n1`: the inhibition result in data set [1] was “Active”. In addition, the inhibition entry in data set [2] and in data set [5] was “inactive” in each case. The “inhibition (INH)” value in the data set on THP-1 [3] was determined as 50%. Also, the Activity entry (in data set [4]; in the data set on THP-1 [6]) was “Non-Toxic” each time. The IC50 on Toll-like receptor 8 is 35.5 µM.
